Measured values: ChEMBL document CHEMBL5236615, “Discovery of Novel N-Heterocyclic-Fused Deoxypodophyllotoxin Analogues as Tubulin Polymerization Inhibitors Targeting the Colchicine-Binding Site for Cancer Treatment” (J Med Chem, 2022)
Active and inactive are the calls of the source. The rule behind the calls is not given here.

Legend:
[1] = Antitumor activity against paclitaxel-resistant human MCF7/TxR cells xenografted in Balb/c mouse assessed as tumor growth inhibition at 20 mg/kg, ip administered for every 2 days for 21 days; type: functional; conditions: 504 h, time 21 day, read-out: TGI
[2] = MRT (0 to t) in Sprague-Dawley rat at 10 mg/kg, iv measured upto 8 hrs by LC/MS/MS analysis; type: ADME, organism-based; conditions: in vivo
MCF7 [3] = assay: Induction of cell cycle arrest in human MCF7 cells assessed as upregulation of Bcl2 phosphorylation at […] at 5 to 20 nM in presence of roscovitine measured after 24 hrs by Western blot analysis; type: functional, cell-based; conditions: dose 5-20 nM
MCF7 [4] = assay: Induction of apoptosis in human MCF7 cells assessed as upregulation of p-Bim EL protein expression at 5 to 20 nM measured after 24 hrs by Western blot analysis; type: functional, cell-based; conditions: dose 5-20 nM
[5] = Toxicity in Balb/c mouse xenografted with human MCF7 cells assessed as pathological changes in spleen at 5 to 20 mg/kg, ip administered for every 2 days for 21 days by hematoxylin and eosin staining based analysis; type: organism-based; conditions: in vivo, 504 h, dose 5-20 mg/kg, time 21 day
[6] = Cardiotoxicity in Sprague-Dawley rat assessed as PR interval at 10 to 60 mg/kg, iv measured upto 60 mins by electrocardiography; type: toxicity, organism-based; conditions: in vivo, 1 h, dose 10-60 mg/kg
MCF7 [7] = assay: Antiproliferative activity against human MCF7 cells assessed as survival rate at 20 nM in presence of roscovitine measured after 72 hrs by MTT assay relative to control; type: functional
[8] = Cardiotoxicity in Sprague-Dawley rat assessed as Qt interval at 10 to 60 mg/kg, iv measured upto 60 mins by electrocardiography; type: toxicity, organism-based; conditions: in vivo, 1 h, dose 10-60 mg/kg
MCF7 [9] = assay: Induction of apoptosis in human MCF7 cells assessed as upregulation of cleaved Caspase 9 at 5 to 20 nM measured after 24 hrs by Western blot analysis; type: functional, cell-based; conditions: dose 5-20 nM
[10] = Cardiotoxicity in Sprague-Dawley rat assessed as RR interval at 10 to 60 mg/kg, iv measured upto 60 mins by electrocardiography; type: toxicity, organism-based; conditions: in vivo, 1 h, dose 10-60 mg/kg
[11] = Clearance in Sprague-Dawley rat at 10 mg/kg, iv measured upto 8 hrs by LC/MS/MS analysis; type: ADME, organism-based; conditions: in vivo
[12] = Toxicity in Balb/c mouse assessed as pathological changes in blood aspartate aminotransferase level at 20 mg/kg, ip administered for every 2 days for 14 days; type: organism-based; conditions: in vivo, 336 h, time 14 day
[13] = AUC (0 to t) in Sprague-Dawley rat at 10 mg/kg, iv measured upto 8 hrs by LC/MS/MS analysis; type: ADME, organism-based; set-up: dose 10 mg/kg, time < 8 hrs, route iv; conditions: in vivo
[14] = Toxicity in Balb/c mouse assessed as pathological changes in blood lactic dehydrogenase level at 20 mg/kg, ip administered for every 2 days for 14 days; type: organism-based; conditions: in vivo, 336 h, time 14 day
Tubulin = Tubulin (Sus scrofa, UniProt P02554+P02550); assay: Binding affinity to porcine brain tubulin assessed as changes in the fluorescence incubated for 10 mins tryptophan-based binding assay
[15] = Cardiotoxicity in Sprague-Dawley rat assessed as heart rate at 10 to 60 mg/kg, iv measured upto 60 mins by electrocardiography; type: toxicity, organism-based; conditions: in vivo, 1 h, dose 10-60 mg/kg
[16] = Half life in Sprague-Dawley rat at 10 mg/kg, iv measured upto 8 hrs by LC/MS/MS analysis; type: ADME, organism-based; conditions: in vivo
Tubulin (Homo sapiens) [17] = biological target: T1, Tubulin (Homo sapiens) (UniProt P68371+Q9H4B7+P0DPH7+P68366+Q13509+Q71U36+P04350+Q3ZCM7+P07437+P68363+Q9BQE3+Q6PEY2+Q13885+Q9BVA1+Q9BUF5); assay: Inhibition of [3H]colchicine binding to tubulin (unknown origin) at 1 uM by competition scintillation proximity assay relative to control; type: protein-complex assay
K562 = assay: cells; conditions: Homo sapiens, K562, 72 h
Description: Antiproliferative activity against human K562 cells measured after 72 hrs by MTT assay

[18] = Cmax in Sprague-Dawley rat at 10 mg/kg, iv measured upto 8 hrs by LC/MS/MS analysis; type: ADME, organism-based; set-up: dose 10 mg/kg, time < 8 hrs, route iv; conditions: in vivo
MCF7 [19] = assay: Induction of apoptosis in human MCF7 cells assessed as upregulation of p-Bim EL protein expression at 5 to 20 nM in presence of roscovitine measured after 24 hrs by Western blot analysis; type: functional, cell-based; conditions: dose 5-20 nM
HUVEC = assay: Inhibition of angiogenesis in HUVEC cells assessed as reduction in capillary tube formation after 6 hrs by phase contrast microscopy; type: functional, cell-based; conditions: Homo sapiens, dose 1.25-5 nM
MCF7 [20] = assay: Induction of cell cycle arrest in human MCF7 cells assessed as acetyl-alpha tubulin at 20 nM in presence of roscovitine measured after 24 hrs by Western blot analysis; type: functional, cell-based
[21] = Toxicity in Balb/c mouse assessed as pathological changes in blood urea nitrogen level at 20 mg/kg, ip administered for every 2 days for 14 days; type: organism-based; conditions: in vivo, 336 h, time 14 day
MCF7 [22] = assay: Antitumor activity against human MCF7 cells xenografted in Balb/c mouse assessed as tumor growth inhibition at 5 mg/kg, ip administered for every 2 days for 21 days; type: functional; conditions: MCF7, 504 h, time 21 day, read-out: TGI
MCF7 [23] = assay: Induction of apoptosis in human MCF7 cells assessed as upregulation of p-Bim L protein expression at 5 to 20 nM in presence of roscovitine measured after 24 hrs by Western blot analysis; type: functional, cell-based; conditions: dose 5-20 nM
MCF7 [24] = assay: Antiproliferative activity against human MCF7 cells assessed as survival rate at 20 nM measured after 72 hrs by MTT assay relative to control; type: functional
MCF7 [25] = assay: Antitumor activity against human MCF7 cells xenografted in Balb/c mouse assessed as decrease in Ki67-positive tumor cells in tumor at 20 mg/kg, ip administered for every 2 days for 21 days; type: functional, organism-based; conditions: time 2.0 day
MCF7 [26] = assay: Induction of cell cycle arrest in human MCF7 cells assessed as CI-PARP at 5 to 20 nM in presence of roscovitine measured after 24 hrs by Western blot analysis; type: functional, cell-based; conditions: dose 5-20 nM
[27] = Metabolic stability in human liver microsomes assessed as half life at 1 uM by LC/MS analysis; type: ADME, Microsome
[28] = Toxicity in Balb/c mouse assessed as pathological changes in blood creatine kinase level at 20 mg/kg, ip administered for every 2 days for 14 days; type: organism-based; conditions: in vivo, 336 h, time 14 day
[29] = Metabolic stability in human liver microsomes assessed as intrinsic clearance at 1 uM by LC/MS analysis; type: ADME, Microsome; conditions: read-out: CLH
[30] = Volume of distribution at steady sate in Sprague-Dawley rat at 10 mg/kg, iv measured upto 8 hrs by LC/MS/MS analysis; type: ADME, organism-based; conditions: in vivo, read-out: Vdss
[31] = Cardiotoxicity in Sprague-Dawley rat assessed as QTcf value at 10 to 60 mg/kg, iv measured upto 60 mins by electrocardiography; type: toxicity, organism-based; conditions: in vivo, 1 h, dose 10-60 mg/kg
Tubulin (Homo sapiens) [32] = biological target: T1, Tubulin (Homo sapiens); assay: Disruption of microtubule network in human MCF7 cells assessed as broken microtubule filaments at 20 nM measured after 6 hrs by immunofluorescence assay; type: cell-based
[33] = Tmax in Sprague-Dawley rat at 10 mg/kg, iv measured upto 8 hrs by LC/MS/MS analysis; type: ADME, organism-based; conditions: in vivo
A549/TxR = assay: Inhibition of colony formation of paclitaxel-resistant human A549/TxR cells at 20 nM measured after 24 hrs by crystal violet based assay; type: functional, cell-based

## COc1c(Cl)cc([C@@H]2c3cc4c(cc3C[C@H]3C(=O)NC(=O)N23)OCCO4)cc1Cl
[1]
  inhibition in vivo at 20 mg/kg: 67.7%
[2]
  MRT last at 8 h: 107 min
MCF7 [3]
  Activity: inactive
MCF7 [4]
  Activity: Active
[5]
  Activity: Non-Toxic
[6]
  Activity: Non-Toxic
MCF7 [7]
  Activity: 60.71%
[8]
  Activity: Non-Toxic
MCF7 [9]
  Activity: Active
[10]
  Activity: Non-Toxic
[11]
  CL: 65 mL/min/kg
[12]
  Activity: Non-Toxic
[13]
  AUCt: 6530 ng·h/mL
[14]
  Activity: Non-Toxic
Tubulin
  Kd: 4490 nM
[15]
  Activity: Non-Toxic
[16]
  t1/2: 95.4 min
Tubulin (Homo sapiens) [17]
  inhibition: 71.5%
K562
  IC50: 6.3 nM
[18]
  Cmax: 7291 ng/mL
MCF7 [19]
  Activity: inactive
HUVEC
  Activity: Dose-Dependent Effect
MCF7 [20]
  Activity: Active
[21]
  Activity: Non-Toxic
MCF7 [22]
  inhibition in vivo at 5 mg/kg: 41%
MCF7 [23]
  Activity: inactive
MCF7 [24]
  Activity: 31.55%
MCF7 [25]
  Activity: Active
MCF7 [26]
  Activity: inactive
[27]
  half-life at 1 µM: 26.1 min
[28]
  Activity: Non-Toxic
[29]
  CLint scaled at 1 µM: 66.7 mL/min/kg
[30]
  Vd: 6.99 L/kg
[31]
  Activity: Non-Toxic
Tubulin (Homo sapiens) [32]
  Activity: Active
[33]
  Tmax: 6.6 min
A549/TxR
  inhibition: Active

## COc1c(Br)cc([C@@H]2c3cc4c(cc3C[C@H]3C(=O)NC(=O)N23)OCCO4)cc1Br
MCF7 [4]
  Activity: Active
[5]
  Activity: Non-Toxic
MCF7 [9]
  Activity: Active
Tubulin
  Kd: 1700 nM
Tubulin (Homo sapiens) [17]
  inhibition: 69.7%
K562
  IC50: 5.3 nM
HUVEC
  Activity: Dose-Dependent Effect
MCF7 [22]
  inhibition in vivo at 5 mg/kg: 20.8%
MCF7 [25]
  Activity: Active
[27]
  half-life at 1 µM: 10.4 min
[29]
  CLint scaled at 1 µM: 167 mL/min/kg
A549/TxR
  inhibition: Active
